Tests used:
[1] = test system: C57BL/6 mice with liver fibrosis induced by carbon tetrachloride; test: carbon tetrachloride (CCl4)-induced liver fibrosis animal model; format: in vivo, mouse; conditions: blood, CCl4 + MBX 40 (40 mg/kg oral)
Description: 6-week-old male C57BL/6J mice (Joongang laboratory animal, Seoul) were acclimated in a laboratory environment for 1 week with solid feed, and randomly arranged in control groups and experimental groups according to randomized block design. Then, carbon tetrachloride (1 ml/kg) was administered to 6-week-old male C57BL/6 mice (Joongang laboratory animal, Seoul) twice a week for three weeks to induce liver fibrosis, and a GPR119 ligand (10 mg/kg) suspended in 40% PEG400 was orally administered thereto once a day for five days per week. For liver fibrosis models induced by dimethylnitrosamine (DMN), DMN (10 mg/kg) was administered to mice three times a week to induce liver fibrosis. As the control group, a vehicle-treated group was used. After termination of the experiment, the laboratory animals were fasted for 12 hours or more, and anesthetized with Zoletil to obtain blood and the liver, and the liver was washed with 0.1 M phosphate buffered saline (PBS; pH 7.4) and weighed. The blood obtained from the abdominal aorta was centrifuged in an SST tube at 3000×RPM for 20 minutes to isolate the serum.
For the above-mentioned laboratory animals, serum alanine transaminase (ALT), aspartate transaminase (AST), total bilirubin (T-BIL) and direct bilirubin (D-BIL) were analyzed using an automated hematology analyzer, Spectrum [(Abbott Laboratories, Abbott Park, Ill.)].
The liver samples obtained as described above were prepared into sections, and the tissue section was fixed with 10% buffered neutral formalin and embedded in paraffin. Afterward, the resulting section was sliced to a 4-μm thickness, and put on a slide to fix a specimen, stained with sirius red, and observed using an optical microscope.
A predetermined amount of liver tissue was homogenized in a mortar with liquid nitrogen and a lysis buffer, and the resulting tissue solution was transferred into a new tube and then vortexed. The tissue solution was centrifuged at 14,000 rpm and 4° C. for 20 minutes, and the intermediate layer was extracted to quantify a protein by a Bradford method. 30 μg of proteins were analyzed by electrophoresis using an SDS polyacrylamide gel, and the change of protein expression was analyzed by western blot.
To examine improvement of liver fibrosis by the GPR119 ligand, in an animal model having liver fibrosis induced by carbon tetrachloride (CCl4), an effect of the GPR119 ligand on inhibiting liver fibrosis was observed.
First, 1 ml/kg of carbon tetrachloride was intraperitoneally administered twice a week, and also orally administered with the GPR119 ligand (MBX-2982) at doses of 20 and 40 mg/kg, respectively, once a day for 5 days a week. Three weeks later, liver tissue was extracted, subjected to sirius red staining for confirming collagen production and immunohistochemical staining for confirming expression of a HSC activation marker, that is, α-SMA, and then compared with a control group and a carbon tetrachloride only-treated group.

human HSC line LX-2 = test: TGFβ1-inducible collagen I and TGFβ expression in LX-2; format: cell-based
Description: (§1) A human HSC line (LX-2, Milipore, U.S.A.) was plated in a 6-well plate, and grown to confluency in DMEM supplemented with 1% penicillin-streptomycin (Hyclone, U.S.A.) and 2% fetal bovine serum (Hyclone, U.S.A.) at 37° C. in a 5% CO2 incubator. For a further experiment, the confluent HSC line was incubated in an FBS-free medium, instead of the 2% FBS-added medium.
Total RNA ([…]) extracted from cells using Trizol and a Maxime RT PreMix Kit (iNtRON Biotechnology, Gyeonggi-do, Korea) was used to obtain cDNA. For RT-PCR, a target gene was amplified by PCR using a Maxime™ PCR PreMix Kit according to the manufacturer's instructions, and subjected to electrophoresis in a 2% agrose gel, thereby identifying the amplified PCR product.
Meanwhile, for real-time RT-qPCR, the synthesized cDNA was assessed in a CFX Connect™ Real-Time PCR Detection System (Bio-Rad Laboratories, CA, USA) instrument using a SYBR green dye (Bio-Rad). The CP value of the gene was calibrated with the CP value of S 18r gene. Also, through a melting curve analysis, specificity of the amplified PCR product was confirmed.
(§2) Sodium dodecylsulfate-polyacrylamide gel electrophoresis (SDS-PAGE) was performed using a gel electrophoresis device (Mighty Small SE 250, Hoefer Scientific Instruments, San Francisco) according to the method established by the inventors. A lysed cell fraction was diluted with a sample dilution buffer [63 mM Tris (pH. 6.8), 10% glycerol, 2% SDS, 0.0013% bromophenol blue, 5% β-mercaptoethanol], and subjected to electrophoresis in an electrode buffer (15 g Tris, 72 g glycerin and 5 g SDS contained in an 1 L solution) using a 8-12% gel. After electrophoresis, the gel was transferred to a nitrocellulose membrane to transfer proteins using an electrophoresis device for transfer in a transfer buffer (25 mM Tris, 192 mM glycerin, 20% v/v methanol (pH. 8.3)] at 40 mA for 3 hours. The nitrocellulose membrane was reacted with first antibodies, reacted with horseradish peroxidase-conjugated goat anti-rabbit IgG and horseradish peroxidase-conjugated goat anti-mouse IgG as secondary antibodies for 1 hour, and visualized using an ECL chemiluminescence system (Amersham, Gaithesberg, Mass.).
A critical cytokine having an influence on the induction of liver fibrosis, TGFβ1, is a potent fibrosis stimulation factor for HSCs. To examine the expression of a liver fibrosis-inducing factor which was increased when the human liver cell line LX-2, cultured by method D was treated with TGFβ1, changes in expression according to the treatment with GPR119 ligands (MBX-2982, GSK1292263) were assessed by the methods described in G and H, thereby observing the effect of the GPR119 ligands.

Smad3 and p300 = test: Smad3-p300 interaction, Smad3 acetylation and AMPK-p300 binding in LX-2 (immunoprecipitation); format: cell-based, human
Description: as §1
Total fraction protein was reacted with corresponding antibodies at 4° C. for 12 hours or more. An antigen-antibody conjugate was reacted with protein G-agarose at 4° C. for 2 hours to precipitate, and then reacted with 2× Laemmli buffer. The extracted protein was observed by an immunochemical method.
According to existing reports, AMPK activation in HSCs inhibits the interaction between Smad3 and p300 and inhibits the expression of a liver fibrosis-inducing factor through elevation of proteasomal degradation of the transcriptional coactivator p300. Thus, the influence of the GPR119 ligand on the interaction between Smad2/Smad3 and p300 was examined.
Subsequently, in the present invention, a mechanism for inhibiting the Smad-p300 interaction due to AMPK activation was investigated.

p300 = p300 protein and mRNA expression in LX-2; format: cell-based, human
Description: as §1, §2
Thereafter, in the present invention, the influence of the GPR119 ligand on p300 expression was observed. […] From the result, it was assumed that a decrease in the expression of the p300 protein due to the GPR119 ligand could be caused by proteasomal degradation, and therefore the expression of the p300 protein was observed using a proteasome inhibitor, which is MG132.

[2] = test system: cAMP/PKA (cyclic AMP/Protein kinase A); test: activation of GPR119 signaling pathway cAMP/PKA, with PKA inhibitor H-89; format: cell-based; conditions: FIG. 4a
Description: First, when a PKA inhibitor H-89 was treated, a change in action of the GPR119 ligand was examined.

[3] = test system: peptidyl prolyl isomerase (Pin1); test: Pin1 expression in LX-2; format: cell-based, human; conditions: FIG. 5b
Description: as §1
According to existing reports, as a core factor participating in cell proliferation by PDGF, peptidyl prolyl isomerase (Pin1) is known. Therefore, Pin1 relevance with respect to the GPR119 ligand action was evaluated.

[4] = test system: AMP-activated protein kinase (AMPK); test: AMPK activation (AMPK and ACC phosphorylation) in LX-2; format: cell-based, human; conditions: LX-2, time-dependent treatment; FIG. 4b
Description: as §1
Sodium dodecylsulfate-polyacrylamide gel electrophoresis (SDS-PAGE) was performed using a gel electrophoresis device (Mighty Small SE 250, Hoefer Scientific Instruments, San Francisco) according to the method established by the inventors. A lysed cell fraction was diluted with a sample dilution buffer [63 mM Tris (pH. 6.8), 10% glycerol, 2% SDS, 0.0013% bromophenol blue, 5% β-mercaptoethanol], and subjected to electrophoresis in an electrode buffer (15 g Tris, 72 g glycerin and 5 g SDS contained in an 1 L solution) using a 8-12% gel. […]

HSC line LX-2 = test: PDGF-induced HSC proliferation in LX-2; format: cell-based, human; conditions: FIG. 5a
Description: as §1

[5] = LX-2 treated with TGFβ1, FIGS. 2c, 2d
[6] = LX-2 treated with ligand alone, FIG. 4h

Smad3 acetylation elevated by TGFβ1 (Smad3 and p300; LX-2, FIG. 4e): considerably inhibited
interaction between Smad3 and p300 elevated by TGFβ1 (Smad3 and p300; LX-2, FIG. 4e): considerably inhibited
binding of activated AMPK to p300 (Smad3 and p300; LX-2 treated with ligand alone, FIG. 4g): directly bound to p300
cAMP activation [2]: observed
action on inhibiting collagen I and TGFβ expression when PKA inhibitor H-89 was treated ([2]; with H-89): not offset
Pin1 expression [3]: time-dependently reduced
AMPK activation (AMPK and ACC phosphorylation) [4]: highly activated
SMILES: CCc1cnc(N2CCC(c3nc(COc4ccc(-n5cnnn5)cc4)cs3)CC2)nc1 [MBX-2982, 4-((4-(1H-tetrazol-1-yl)phenoxy)methyl)-2-(1-(5-ethylpyrimidin-2-yl)piperidin-4-yl)thiazole]
AST [1]: 68.11 U/L
D-BIL [1]: 0.12 mg/dL
T-BIL [1]: 0.23 mg/dL
expression of TGFβ1-inducible liver fibrosis inducing factors (collagen I, TGFβ) with compound C / DN-AMPK (human HSC line LX-2; AMPK inhibitor compound C treated, DN-AMPK transduced, FIG. 4c): inhibitory effect
inhibitory effect on collagen I and TGFβ expression under overexpression of Pin1 (human HSC line LX-2; LX-2 transduced with Pin1 adenovirus, TGFβ1, FIG. 5c): reversed
expression of TGFβ1-inducible TGFβ (human HSC line LX-2; [5]): inhibited
expression of TGFβ1-inducible collagen I (human HSC line LX-2; [5]): inhibited
expression of the p300 protein (p300; [6]): reduced depending on the concentration
mRNA expression of p300 (p300; [6]): no influence
expression of the p300 protein decreased by ligand, with proteasome inhibitor MG132 (p300; with MG132 treatment, FIG. 4i): recovered
HSC proliferation induced by PDGF (HSC line LX-2): inhibited
